According to ChEMBL document CHEMBL2169832, “Conformation-specific effects of Raf kinase inhibitors” (J Med Chem, 2012):

How the values were obtained:
[1] = system: A-375; test: cells; conditions: Homo sapiens
[2] = system: HCT-116; test: cells; conditions: Homo sapiens
[3] = target: RAF proto-oncogene serine/threonine-protein kinase (Homo sapiens, UniProt P04049); test: Inhibition of C-Raf
Sequence of RAF proto-oncogene serine/threonine-protein kinase (P04049 whole entry): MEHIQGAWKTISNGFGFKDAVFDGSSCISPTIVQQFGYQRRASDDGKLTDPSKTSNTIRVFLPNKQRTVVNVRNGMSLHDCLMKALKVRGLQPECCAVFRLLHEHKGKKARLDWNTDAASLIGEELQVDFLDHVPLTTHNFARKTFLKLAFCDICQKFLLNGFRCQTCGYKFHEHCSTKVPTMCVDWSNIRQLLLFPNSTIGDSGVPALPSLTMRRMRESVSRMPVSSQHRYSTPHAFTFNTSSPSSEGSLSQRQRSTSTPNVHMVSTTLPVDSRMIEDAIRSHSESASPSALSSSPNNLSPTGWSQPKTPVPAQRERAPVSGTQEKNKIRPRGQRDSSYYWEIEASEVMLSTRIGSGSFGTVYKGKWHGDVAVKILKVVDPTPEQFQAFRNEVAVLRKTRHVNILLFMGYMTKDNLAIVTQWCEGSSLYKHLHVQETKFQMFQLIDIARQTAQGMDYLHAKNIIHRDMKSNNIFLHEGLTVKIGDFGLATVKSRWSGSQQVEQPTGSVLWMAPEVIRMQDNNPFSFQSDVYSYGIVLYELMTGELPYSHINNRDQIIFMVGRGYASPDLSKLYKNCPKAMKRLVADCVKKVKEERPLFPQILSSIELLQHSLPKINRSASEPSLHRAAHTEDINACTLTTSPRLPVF

| SMILES | IC50 [1] | IC50 [2] | Ki [3] |
| --- | --- | --- | --- |
| CNC(=O)c1cc(Oc2ccc(NC(=O)Nc3ccc(Cl)c(C(F)(F)F)c3)cc2)ccn1 [SORAFENIB] | 2400 nM | 2000 nM |  |
| CCCS(=O)(=O)Nc1ccc(F)c(C(=O)c2c[nH]c3ncc(Cl)cc23)c1F [PLX-4720] | 500 nM | 27000 nM |  |
| Cc1ccc2c(Nc3ccc(Cl)cc3)nccc2c1Nc1ncccc1-c1ncnc2[nH]cnc12 | 310 nM | 720 nM | 0.3 nM |

More lines, main results first:

| IC50 [1] | IC50 [2] | SMILES | Ki [3] |
| --- | --- | --- | --- |
| 370 nM | 4600 nM | CN(C)CCOc1ccc(-c2nc(-c3ccncc3)c(-c3ccc4c(c3)CC/C4=N\O)[nH]2)cc1 [SB590885] |  |
| < 500 nM | > 20000 nM | OCCn1cc(-c2ccc3c(c2)CC/C3=N\O)c(-c2ccncc2)n1 |  |
